In the supplement of paper PMC12463676, “Small-molecule dissolution of stress granules by redox modulation benefits ALS models” (Nature Chemical Biology, 2025):

Experiments:
lipoamide = compound: NC(=O)CCCCC1CCSS1 [lipoamide]; assay: thermal stability z-score vs DMSO; higher = more thermally stabilized by treatment; conditions: HeLa, lipoamide concentration 100 µM
Method: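 Cellular thermal proteome profiling in HeLa cells. Cells were treated with 100 µM lipoamide for 1 h, with or without 1 mM arsenate for a further 1 h, then heated to ten temperatures (37-66.3 °C), and soluble protein was quantified by TMT mass spectrometry relative to 0.1% DMSO controls. The thermal stability score (sum of log2 fold changes minus the abundance score) was transformed to a z-score; mean of n = 3 experiments.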

potassium arsenate = compound: O=[As]([O-])(O)O.[K+] [potassium arsenate]; assay: as above; conditions: HeLa; arsenate concentration 1 mM
Method: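 Cellular thermal proteome profiling in HeLa cells treated with 1 mM arsenate for 1 h (DMSO pretreatment), heated to ten temperatures (37-66.3 °C). Soluble protein was quantified by TMT mass spectrometry relative to DMSO controls; the thermal stability score was transformed to a z-score; mean of n = 3 experiments.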

[1] = arsenate co-treatment: 1 mM arsenate 1 h
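Note: each temperature applied for 3 min, abundance score taken as mean log2 fold change at the two lowest temperatures, z-score obtained by mean subtraction and division by SD.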

UniProt Q13561, sequence (Q13561 whole entry): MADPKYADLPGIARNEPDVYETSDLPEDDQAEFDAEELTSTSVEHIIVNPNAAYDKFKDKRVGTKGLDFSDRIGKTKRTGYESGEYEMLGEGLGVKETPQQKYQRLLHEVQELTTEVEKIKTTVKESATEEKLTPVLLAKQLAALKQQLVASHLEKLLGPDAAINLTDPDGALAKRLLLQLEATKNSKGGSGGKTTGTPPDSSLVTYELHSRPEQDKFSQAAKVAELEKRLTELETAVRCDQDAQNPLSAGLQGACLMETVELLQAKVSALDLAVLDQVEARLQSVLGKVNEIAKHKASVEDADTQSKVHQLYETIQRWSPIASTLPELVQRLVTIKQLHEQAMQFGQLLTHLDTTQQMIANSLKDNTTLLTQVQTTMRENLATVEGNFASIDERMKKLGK
UniProt Q58WW2, sequence (Q58WW2 whole entry): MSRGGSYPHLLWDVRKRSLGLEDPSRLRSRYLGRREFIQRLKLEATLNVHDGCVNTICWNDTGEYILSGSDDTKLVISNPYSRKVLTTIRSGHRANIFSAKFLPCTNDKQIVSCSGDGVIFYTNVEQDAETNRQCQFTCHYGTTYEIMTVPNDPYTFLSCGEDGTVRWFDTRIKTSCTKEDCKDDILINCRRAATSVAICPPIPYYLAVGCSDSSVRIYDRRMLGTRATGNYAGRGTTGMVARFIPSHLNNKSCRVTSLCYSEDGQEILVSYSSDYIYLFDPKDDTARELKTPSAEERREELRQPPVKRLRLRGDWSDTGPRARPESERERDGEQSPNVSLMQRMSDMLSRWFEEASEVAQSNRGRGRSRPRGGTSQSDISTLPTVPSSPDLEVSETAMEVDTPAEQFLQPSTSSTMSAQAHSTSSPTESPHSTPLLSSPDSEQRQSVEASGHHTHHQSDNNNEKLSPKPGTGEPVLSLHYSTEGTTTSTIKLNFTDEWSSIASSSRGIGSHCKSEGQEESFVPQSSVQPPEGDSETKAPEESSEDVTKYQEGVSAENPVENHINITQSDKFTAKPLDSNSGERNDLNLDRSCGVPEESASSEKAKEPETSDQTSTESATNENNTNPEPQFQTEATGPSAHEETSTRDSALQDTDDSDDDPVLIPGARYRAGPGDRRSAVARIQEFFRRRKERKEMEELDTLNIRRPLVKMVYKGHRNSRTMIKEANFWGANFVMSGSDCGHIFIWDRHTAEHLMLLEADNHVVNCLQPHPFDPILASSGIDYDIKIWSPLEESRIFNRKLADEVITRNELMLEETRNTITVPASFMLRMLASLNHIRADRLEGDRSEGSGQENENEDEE
UniProt P61962, sequence (P61962 whole entry): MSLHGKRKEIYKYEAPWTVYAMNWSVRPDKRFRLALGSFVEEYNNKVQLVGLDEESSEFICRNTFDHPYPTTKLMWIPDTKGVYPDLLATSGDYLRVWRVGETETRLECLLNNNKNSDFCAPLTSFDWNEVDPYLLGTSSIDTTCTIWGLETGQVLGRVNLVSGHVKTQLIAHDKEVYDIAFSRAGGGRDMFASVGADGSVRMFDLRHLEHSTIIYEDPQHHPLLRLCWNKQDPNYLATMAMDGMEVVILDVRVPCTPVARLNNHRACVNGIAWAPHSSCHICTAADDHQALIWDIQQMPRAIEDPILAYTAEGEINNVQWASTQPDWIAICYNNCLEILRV
UniProt O00622, sequence (O00622 whole entry): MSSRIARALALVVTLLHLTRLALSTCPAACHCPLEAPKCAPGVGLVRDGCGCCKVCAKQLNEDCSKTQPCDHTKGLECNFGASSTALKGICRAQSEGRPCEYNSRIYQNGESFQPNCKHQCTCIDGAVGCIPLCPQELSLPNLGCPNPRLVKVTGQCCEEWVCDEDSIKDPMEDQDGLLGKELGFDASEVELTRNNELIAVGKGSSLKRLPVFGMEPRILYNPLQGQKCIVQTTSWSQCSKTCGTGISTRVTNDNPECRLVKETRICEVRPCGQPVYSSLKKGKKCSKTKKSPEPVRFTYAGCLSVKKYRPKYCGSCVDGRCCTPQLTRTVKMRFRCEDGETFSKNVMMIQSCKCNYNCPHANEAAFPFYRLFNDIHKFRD
UniProt Q92564, sequence (Q92564 whole entry): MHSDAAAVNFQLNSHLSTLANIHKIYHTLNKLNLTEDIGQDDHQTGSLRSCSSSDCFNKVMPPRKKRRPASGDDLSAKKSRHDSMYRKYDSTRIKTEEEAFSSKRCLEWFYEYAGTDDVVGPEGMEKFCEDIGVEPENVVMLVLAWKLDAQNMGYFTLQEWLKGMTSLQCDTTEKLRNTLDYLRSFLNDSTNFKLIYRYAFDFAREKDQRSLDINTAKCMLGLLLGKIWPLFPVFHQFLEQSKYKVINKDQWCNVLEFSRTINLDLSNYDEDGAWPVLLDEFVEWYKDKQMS
UniProt Q9BTE1, sequence (Q9BTE1 whole entry): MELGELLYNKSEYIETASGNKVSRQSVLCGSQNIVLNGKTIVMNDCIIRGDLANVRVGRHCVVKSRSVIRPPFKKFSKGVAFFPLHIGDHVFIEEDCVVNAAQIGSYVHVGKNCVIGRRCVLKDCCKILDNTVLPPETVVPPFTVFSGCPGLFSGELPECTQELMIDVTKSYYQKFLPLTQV
UniProt Q9P0U4, sequence (Q9P0U4 whole entry): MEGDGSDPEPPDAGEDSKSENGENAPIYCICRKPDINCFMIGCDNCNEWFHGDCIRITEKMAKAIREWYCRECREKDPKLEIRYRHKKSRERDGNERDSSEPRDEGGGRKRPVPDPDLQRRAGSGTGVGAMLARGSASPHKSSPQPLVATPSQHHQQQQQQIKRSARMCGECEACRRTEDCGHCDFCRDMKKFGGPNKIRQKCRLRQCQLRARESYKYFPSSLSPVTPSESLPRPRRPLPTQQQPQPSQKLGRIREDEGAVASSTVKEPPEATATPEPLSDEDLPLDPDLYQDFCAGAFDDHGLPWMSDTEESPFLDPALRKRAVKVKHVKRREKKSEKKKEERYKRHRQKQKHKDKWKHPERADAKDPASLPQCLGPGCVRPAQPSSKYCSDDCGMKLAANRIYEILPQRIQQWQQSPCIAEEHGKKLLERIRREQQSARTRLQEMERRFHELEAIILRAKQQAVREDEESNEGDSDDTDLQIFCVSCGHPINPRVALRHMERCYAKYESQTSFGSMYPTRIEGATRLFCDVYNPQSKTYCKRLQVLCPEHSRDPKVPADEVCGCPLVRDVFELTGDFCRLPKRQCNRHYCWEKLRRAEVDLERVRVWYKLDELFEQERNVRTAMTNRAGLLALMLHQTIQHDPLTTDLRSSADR
UniProt Q96SQ9, sequence (Q96SQ9 whole entry): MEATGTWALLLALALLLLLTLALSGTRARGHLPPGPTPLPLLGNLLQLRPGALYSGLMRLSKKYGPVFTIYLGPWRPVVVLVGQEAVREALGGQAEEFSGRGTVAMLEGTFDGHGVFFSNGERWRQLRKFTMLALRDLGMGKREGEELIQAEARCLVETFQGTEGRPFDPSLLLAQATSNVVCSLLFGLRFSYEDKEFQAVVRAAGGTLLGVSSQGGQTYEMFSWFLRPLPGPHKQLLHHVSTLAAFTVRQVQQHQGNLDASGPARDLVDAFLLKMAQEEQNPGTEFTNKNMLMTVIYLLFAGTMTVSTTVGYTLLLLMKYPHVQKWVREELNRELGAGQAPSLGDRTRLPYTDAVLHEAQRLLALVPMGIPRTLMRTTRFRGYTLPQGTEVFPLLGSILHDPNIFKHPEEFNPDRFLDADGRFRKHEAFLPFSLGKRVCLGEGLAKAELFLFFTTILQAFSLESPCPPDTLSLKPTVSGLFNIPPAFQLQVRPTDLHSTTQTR
UniProt P27707, sequence (P27707 whole entry, looked up): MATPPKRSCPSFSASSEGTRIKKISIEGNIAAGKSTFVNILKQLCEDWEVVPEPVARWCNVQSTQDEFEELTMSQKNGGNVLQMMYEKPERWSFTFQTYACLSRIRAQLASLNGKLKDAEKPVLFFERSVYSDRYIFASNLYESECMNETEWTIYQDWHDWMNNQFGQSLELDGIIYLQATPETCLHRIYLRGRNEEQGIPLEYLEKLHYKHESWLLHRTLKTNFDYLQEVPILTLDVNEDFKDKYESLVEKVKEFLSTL
UniProt P51397, sequence (P51397 whole entry): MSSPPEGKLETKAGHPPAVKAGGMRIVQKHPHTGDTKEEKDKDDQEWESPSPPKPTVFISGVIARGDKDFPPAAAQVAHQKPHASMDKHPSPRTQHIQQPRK
UniProt Q2TBE0, sequence (Q2TBE0 whole entry): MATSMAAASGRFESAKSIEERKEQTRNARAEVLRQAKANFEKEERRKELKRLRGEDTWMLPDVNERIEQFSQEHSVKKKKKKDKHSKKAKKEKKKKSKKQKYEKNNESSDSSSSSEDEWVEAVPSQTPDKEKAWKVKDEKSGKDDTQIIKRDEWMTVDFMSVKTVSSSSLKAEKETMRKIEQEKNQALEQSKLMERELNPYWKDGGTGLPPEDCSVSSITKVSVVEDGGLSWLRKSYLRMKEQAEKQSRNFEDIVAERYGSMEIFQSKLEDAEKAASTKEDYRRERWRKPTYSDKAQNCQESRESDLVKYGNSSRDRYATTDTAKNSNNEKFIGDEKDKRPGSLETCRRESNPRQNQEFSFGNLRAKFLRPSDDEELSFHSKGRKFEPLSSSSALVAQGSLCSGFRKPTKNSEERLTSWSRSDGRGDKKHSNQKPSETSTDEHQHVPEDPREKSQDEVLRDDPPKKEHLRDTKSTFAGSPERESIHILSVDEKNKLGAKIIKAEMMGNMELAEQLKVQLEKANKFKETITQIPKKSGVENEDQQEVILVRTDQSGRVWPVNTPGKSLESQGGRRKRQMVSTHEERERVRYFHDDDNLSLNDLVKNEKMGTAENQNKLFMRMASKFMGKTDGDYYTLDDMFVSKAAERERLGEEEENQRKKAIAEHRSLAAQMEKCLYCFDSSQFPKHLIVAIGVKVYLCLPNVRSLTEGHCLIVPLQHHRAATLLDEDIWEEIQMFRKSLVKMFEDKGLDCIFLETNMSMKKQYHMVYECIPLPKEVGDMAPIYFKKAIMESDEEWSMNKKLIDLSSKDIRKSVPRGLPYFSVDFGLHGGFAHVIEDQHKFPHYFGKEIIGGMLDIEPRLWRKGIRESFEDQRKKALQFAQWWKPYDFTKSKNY

| Target | thermal stability z-score (lipoamide; [1]) | thermal stability z-score (lipoamide; arsenate co-treatment: none) | thermal stability z-score (potassium arsenate) |
| --- | --- | --- | --- |
| CUTA (UniProt O60888) | 1.1 | 0.709 | -0.0462 |
| CUTC (UniProt Q9NTM9) | 0.342 | 0.211 | -0.934 |
| CUX1 | 0.393 | 0.589 | 0.272 |
| CWC15 (UniProt Q9P013) | 1.65 | 0.526 | -0.193 |
| CWC22 (UniProt Q9HCG8) | -0.0873 | 0.0387 | -0.263 |
| CWC27 (UniProt Q6UX04) | 0.0242 | -0.348 | -0.344 |
| CWF19L1 (UniProt Q69YN2) | -0.381 | -0.106 | -0.198 |
| CWF19L2 (UniProt Q2TBE0) | 0.0402 | -0.0633 | -0.098 |
| CXADR (UniProt P78310) | 0.11 | 0.273 | 0.0224 |
| CXORF38 (UniProt Q8TB03) | 0.486 | 0.307 | -1.87 |
| CXORF56 (UniProt Q9H5V9) | 0.162 | -0.0486 | -3.91 |
| CXXC1 (UniProt Q9P0U4) | -0.00204 | 0.187 | 0.00172 |
| CYB5B (UniProt O43169) | 1.05 | 0.411 | 0.322 |
| CYB5R1 (UniProt Q9UHQ9) | 1.47 | 0.244 | -2.32 |
| CYB5R3 (UniProt P00387) | 1.07 | -0.079 | -0.832 |
| CYB5R4 (UniProt Q7L1T6) | 0.477 | 0.1 | -0.243 |
| CYB561A3 (UniProt Q8NBI2) | -0.299 | -0.521 | -0.949 |
| CYBA (UniProt P13498) | 0.0672 | 0.232 | 0.653 |
| CYC1 (UniProt P08574) | 0.0943 | -0.0471 | -1.31 |
| CYCS (UniProt P99999) | 0.873 | 0.819 | -0.152 |
| CYFIP1 (UniProt Q7L576) | -0.422 | -0.325 | -1.67 |
| CYFIP2 (UniProt Q96F07) | 0.325 | 0.825 | 0.312 |
| CYLD (UniProt Q9NQC7) | -0.238 | 0.0192 | 0.144 |
| CYP1B1 (UniProt Q16678) | 0.0413 | 0.0132 | -0.0983 |

| Target | thermal stability z-score (lipoamide; [1]) | thermal stability z-score (lipoamide; arsenate co-treatment: none) | thermal stability z-score (potassium arsenate) |
| --- | --- | --- | --- |
| CYP2S1 (UniProt Q96SQ9) | -1.14 | -0.765 | -0.647 |
| CYP20A1 (UniProt Q6UW02) | 0.107 | 0.633 | 0.0905 |
| CYP51A1 (UniProt Q16850) | -0.665 | -0.0953 | 0.803 |
| CYR61 (UniProt O00622) | -1.72 | -1.47 | -4.51 |
| CYSTM1 (UniProt Q9H1C7) | -0.79 | 0.912 | -1.22 |
| CYTH1 (UniProt Q15438) | -0.178 | 0.00951 | 0.0222 |
| DAAM1 (UniProt Q9Y4D1) | -0.0152 | -0.226 | 0.17 |
| DAB2 (UniProt P98082) | 0.216 | 0.404 | 1.73 |
| DAB2IP (UniProt Q5VWQ8) | -0.101 | -0.023 | -0.398 |
| DAG1 (UniProt Q14118) | -0.341 | -0.236 | 0.184 |
| DAGLB (UniProt Q8NCG7) | 0.268 | 0.278 | 0.0163 |
| DAP3 (UniProt P51398) | -0.597 | -0.135 | 0.132 |
| DAP (UniProt P51397) | 1.03 | 0.89 | -0.0556 |
| DAPK3 (UniProt O43293) | -0.0576 | -0.0876 | 0.228 |
| DARS2 (UniProt Q6PI48) | -0.726 | -0.586 | -1.93 |
| DARS (UniProt P14868) | 0.186 | -0.0144 | -0.593 |
| DAXX (UniProt Q9UER7) | -0.0224 | -0.149 | -0.391 |
| DAZAP1 (UniProt Q96EP5) | 1.15 | 1.07 | 0.243 |
| DBI (UniProt P07108) | 1.09 | 0.274 | -0.228 |
| DBN1 (UniProt Q16643) | 0.625 | -0.407 | -0.684 |
| DBNL (UniProt Q9UJU6) | 0.473 | 0.208 | 0.99 |
| DBR1 (UniProt Q9UK59) | 0.0885 | -0.174 | 0.5 |
| DBT (UniProt P11182) | -0.65 | -0.0292 | -1.75 |
| DCAF6 (UniProt Q58WW2) | -0.747 | -0.879 | -0.72 |

| Target | thermal stability z-score (lipoamide; [1]) | thermal stability z-score (lipoamide; arsenate co-treatment: none) | thermal stability z-score (potassium arsenate) |
| --- | --- | --- | --- |
| DCAF7 (UniProt P61962) | 0.278 | 0.939 | 1.2 |
| DCAF10 (UniProt Q5QP82) | 0.0128 | 0.566 | 0.0678 |
| DCAF11 (UniProt Q8TEB1) | 0.101 | 0.343 | -0.996 |
| DCAF12 (UniProt Q5T6F0) | 0.118 | 0.0205 | 0.154 |
| DCAF13 (UniProt Q9NV06) | -0.43 | -0.325 | 1.25 |
| DCAF15 (UniProt Q66K64) | 0.165 | -0.178 | -0.174 |
| DCAKD (UniProt Q8WVC6) | -0.963 | -1.05 | 0.214 |
| DCBLD2 (UniProt Q96PD2) | 0.0564 | 0.109 | -0.505 |
| DCK (UniProt P27707) | 0.519 | 0.335 | -5 |
| DCLK2 (UniProt Q8N568) | -0.19 | 0.0433 | 0.0241 |
| DCP1A (UniProt Q9NPI6) | -0.2 | -0.107 | -0.248 |
| DCP2 (UniProt Q8IU60) | -0.0416 | 0.195 | -0.203 |
| DCPS (UniProt Q96C86) | -0.92 | -0.621 | -0.92 |
| DCTD (UniProt P32321) | 0.038 | -0.504 | -0.736 |
| DCTN1 (UniProt Q14203) | -0.27 | -0.171 | 0.369 |
| DCTN2 (UniProt Q13561) | 0.321 | 0.719 | 0.914 |
| DCTN3 (UniProt O75935) | 0.0144 | 0.489 | 0.72 |
| DCTN4 (UniProt Q9UJW0) | -0.368 | -0.0931 | -0.11 |
| DCTN5 (UniProt Q9BTE1) | -0.414 | -0.0773 | -0.329 |
| DCTN6 (UniProt O00399) | -0.771 | -0.761 | -0.333 |
| DCTPP1 (UniProt Q9H773) | 1.22 | 0.682 | 0.499 |
| DCUN1D1 (UniProt Q96GG9) | -0.437 | -0.535 | 0.0368 |
| DCUN1D4 (UniProt Q92564) | 0.0389 | -0.0281 | -0.0972 |
